From patent US20250151724A1, “Liquid Soil Treatments Containing Choline” (Harrell's, LLC, priority 2023, published 2025)

System: creeping bentgrass putting greens
Experiment: Experiment No. 5: putting green field trial of Fleet100 and choline alone or in combination
Format: in vivo
Conditions: Fleet100 5 fl oz, choline 0.25 oz/1000 ft^2 monthly
Protocol: There were 4 treatments with 4 replications. Plot size was 5×6 ft. Regular mowing and irrigation were performed. A randomized block design was used. Fleet® 100 was supplied by […]) and choline from Sigma-Aldrich, Inc. (St. Louis, MO) were used in this study. The treatments were as follows: • 1. […] N/1,000 ft^2 biweekly • 3. […] N/1,000 ft^2 biweekly • 4. […] The trial lasted for 12 weeks and a total of 3 treatment applications. […] Leaf chlorophyll content. Leaf samples were collected biweekly and chlorophyll content was determined using the spectrophotometer method described by Zhang et al. (2005). • e. Volumetric water content. […] At day 9 of the dry down cycles, leaf samples were collected and leaf proline content was analyzed. Irrigation was resumed after day 9 of each dry down cycle. […] Leaf proline content. Leaf samples were collected at the end of each dry down cycle and proline content was measured by using the method described by Wu et al. (2017). • g. Root characteristics, biomass, and viability. […] The root length, root diameter, root surface area, and root volume were analyzed using WinRHIZO technology. Briefly, after fine cleaning of each root sample, the sample from each plot was divided into multiple subsamples. Each subsample was scanned using WinRHIZO and all root morphological parameters were generated and analyzed. In addition, root viability was analyzed using TTC method (Zhang et al., 2017). Root viability is a good indicator of root function.

## C[N+](C)(C)CCO.[Cl-] [Choline, choline chloride]
Day 0
  Chlorophyll Content: 2.45a mg/g fresh weight
  Leaf color (1-9, 9 = dark green): 7.5a
  Photochemical Efficiency (Fv/Fm): 0.720a
  Turf quality (1-9, 9 = best): 7.5a
Day 14
  Chlorophyll Content: 2.90a mg/g fresh weight
  Leaf color (1-9, 9 = dark green): 7.6ab
  Photochemical Efficiency (Fv/Fm): 0.696a
  Turf quality (1-9, 9 = best): 7.4a
Day 22
  Leaf color (1-9, 9 = dark green): 7.4a
  Photochemical Efficiency (Fv/Fm): 0.664a
  Turf quality (1-9, 9 = best): 6.8ab
Day 22 (end of 1st dry-down cycle)
  Proline: 467.0a ug/g FW
Day 28
  Chlorophyll Content: 3.85a mg/g fresh weight
  Leaf color (1-9, 9 = dark green): 7.8a
  Photochemical Efficiency (Fv/Fm): 0.761a
  Turf quality (1-9, 9 = best): 7.6b
Day 40
  Photochemical Efficiency (Fv/Fm): 0.714a
Day 42
  Chlorophyll Content: 3.03a mg/g fresh weight
  Leaf color (1-9, 9 = dark green): 6.9ab
  Photochemical Efficiency (Fv/Fm): 0.634a
  Turf quality (1-9, 9 = best): 6.5b
Day 42 (end of 2nd dry-down cycle)
  Proline: 538.0a ug/g FW
Day 56
  Chlorophyll Content: 3.46a mg/g fresh weight
  Leaf color (1-9, 9 = dark green): 7.7ab
  Photochemical Efficiency (Fv/Fm): 0.729a
  Turf quality (1-9, 9 = best): 7.4b
Day 70
  Chlorophyll Content: 2.79b mg/g fresh weight
  Leaf color (1-9, 9 = dark green): 7.4ab
  Photochemical Efficiency (Fv/Fm): 0.733ab
  Turf quality (1-9, 9 = best): 7.2ab
Day 84
  Chlorophyll Content: 2.57a mg/g fresh weight
  Leaf color (1-9, 9 = dark green): 7.4b
  Photochemical Efficiency (Fv/Fm): 0.733ab
  Turf quality (1-9, 9 = best): 7.3b
End of trial
  Root Biomass: 2.14ab mg/cm^3
  Root Diameter: 0.187b mm
  Root Length: 118.2a cm/cm^3
  Root SA: 7.02ab cm^2/cm^3
  Root Volume: 33.4ab cm^3/dm^3
End of trial, TTC method
  Root Viability: 0.49a A490/g FW
